This test relates to E. amylovora 153N. As to the kind of experiment: Fire blight on Snow Drift crabapple trees (Example 287). The class given is in vivo, Erwinia amylovora. The note with it: rate 5 lbs/a (2.27 kg/a), mean of the counts, 100 blossoms per subplot. The procedure: A study of the bioefficacy of the various agrichemical compositions, including bioactive acid solutions and blends thereof with an antibiotic agrichemical, were evaluated to assess their bioefficacy against fire blight on crabapples. The study was conducted on 5 year old Snow Drift crabapple trees, with each of the compositions being applied to ten trees in two-subplots of five trees, four different times: at 100% bloom—day 1, a second application was made on day 4, a third on day 11 and a final treatment on day 19. The trees were inoculated with E. amylovora 153N at a concentration of 4×10^6 cells per milliliter on day 1, following drying of the treatment, with the inoculation being repeated on day 13. Evaluation for fire blight was completed on 100 blossoms for each of the subplots on day 12, day 19 and day 27. Additionally, the incidence of shoot infection and the length of cankers were evaluated on day 63.
The test compositions were prepared by forming solutions of the bioactive agents. Two different dilutions of the MI2 bioactive were evaluated; the first employing 94.46 ml/gallon (25 ml/l) of water (5 ppm of each metal) and the second 188.9 ml/gallon (50 ml/l) of water (10 ppm of each metal). A streptomycin product (17% concentrated) was diluted at a rate of 0.049 lbs/gallon ([…]) (200 ppm). Finally, copper hydroxide was diluted at a rate of 1 lb/gallon (119.8 g/l). Each of the compositions and blends were spray applied at a rate of 50 gallons (189.3 l) pre acre. The results are presented as the mean of the counts.

With `[Cu+2].[OH-].[OH-]` [copper hydroxide], the “Blossom Incidence” value amounted to 3.1 (Day 12), 2.2 (Day 19) and 9.0 (Day 27).

The values are drawn from patent US20080299222A1, “Bioactive agrichemical compositions and use thereof” (priority 2007, published 2008).
